How the values were obtained:
[1] = tested on: bFGF-induced corneal neovascularization; experiment: Rat corneal neovascularization (corneal pocket) assay; type: in vivo, Sprague Dawley rats; settings: pellet with 60 ng of bFGF plus 1 ug JC-5, day 7
Experimental: Pellets made of the hydron polymer (polyHEME) and a test drug or DMSO were implanted on the corneal surface of rats, and vascular formation thereof was observed.
A hydron polymer (polyHEME) was dissolved in absolute ethanol (12% w/v) in a rotator at 37° C. overnight, and then stored at room temperature before pellet making. Each pellet for the corneal pocket assay contained 60 ng of bFGF, or 1 ug JC-5 and 20 ug of sucralfate in 3 uL of casting gel, which was constituted as a 50:50 (vol/vol) mixture of hydron gel and factor-sucralfate-PBS. The casting gel was promptly pipetted onto an autoclaved, sterilized 20×20-mm piece of nylon mesh with an approximate pore size of 2×2 mm. The pellets were prepared the day before corneal surgery in a laminar flow hood under sterile conditions. Subsequently, the fibers of the mesh were pulled apart, and uniformly sized pellets of 2×2×0.4 mm^3 were selected for implantation. All procedures were performed in sterile conditions. Such pellets can be stored frozen at −20° C. for several days without loss of bioactivity. […] The eyes were exposed, and the maximum vessel length (VL) of the neovascularization zone, extending from the base of the limbal vascular plexus toward the pellet, was measured. […] The contiguous circumferential zone of neovascularization (CN) was measured in clock hours with a 360° reticule (where 30° of arc equals 1 clock hour).

[2] = tested on: human umbilical vein endothelial cells (HUVEC); experiment: Inhibition of HUVEC net structure (tube) formation on ECM/Matrigel; type: cell-based; settings: group without drug = 100%, read-out: 50% inhibiting concentration (IC50) for inhibiting tube formation
Experimental: The lyophilized powder was dissolved in an appropriate solvent and an in vitro anti-angiogenesis was performed thereto. The ability of the extract for inhibiting net structure formation of human umbilical vein endothelial cells (HUVEC) in extracellular matrix (ECM) or growth factor reduced Matrigel was analyzed, and the forming level of the tube structure thereof was integrated to be used as an indicator for quantification.
Furthermore, by using Matrigel (BD, Cat. No. 356231) as a matrix and observing the state of human umbilical vein endothelial cells (HUVECs) constructing a net structure on the matrix, state of JC-5 (yatein) inhibiting the formation of HUVEC net structure was analyzed. […] The total length of the net structure was calculated through NIS element image analysis software (Nikon; Agent: Lin Trading Co., Ltd. Taiwan), wherein by using the total length of a net structure formed from a group without a drug addition as 100%, the state of JC-5 inhibiting the formation of HUVEC net structure was analyzed.
By using Matrigel (BD, Cat. No. 356231) as a matrix and observing the state of human umbilical vein endothelial cells (HUVECs) constructing a net structure on the matrix, the states of the crude extract (CBT-143-S) and the fractional extract (CBT-143-S-F6F7) inhibiting the formation of HUVEC net structure were analyzed. […]

laser-induced CNV = experiment: Laser-induced choroidal neovascularization (CNV) assay; type: in vivo, brown Norway rats; settings: 1 μg/2 ul in DMSO per eye, fluorescein angiography
Excerpt: Male rats (brown Norway rats, purchased from BioLASCO Co., Taiwan) were used. CNV lesions were induced in rat eyes by laser photocoagulation. Briefly, after the rats were anesthetized, their pupils were dilated with 1% tropicamide. A piece of 18×24 mm^2 standard cover glass served as a contact lens for application of photocoagulation. Argon laser irradiation was delivered through a slit lamp. Laser parameters were set as follows: spot size of 50 μm; power of 120 mW; and exposure duration of 0.1 second. An attempt was made to break Bruch's membrane, as clinically evidenced by central bubble formation, with or without intraretinal or choroidal hemorrhage. Four to six lesions were created between the major retinal vessels in each fundus. One day prior to laser treatment, animals received bilateral intravitreal injection of 2 ul JC-5 (1 ug/eye, N=6) or 2 ul vehicle (DMSO, N=6). Fourteen days later, a self-retaining eye speculum was placed in the eye to facilitate administration. […] Rats were analyzed under general anesthesia after dilation of the pupil and subsequent intraperitoneal injection of 0.5 ml of 2.5% fluorescein sodium (Alcon, […], Germany). […] For quantitative analysis of fluorescein leakage, the area of fluorescein leakage, determined as area of hyperfluorescence in which no normal retinal blood vessels were observed, was measured for each burn using ImageJ software (NIH, USA).

[3] = tested on: Hep-3B conditional medium (CM)-induced angiogenesis; experiment: Matrigel plugs assay, in vivo Hep-3B conditional medium-induced angiogenesis; design: species or system BALB/c mice; settings: orally administered every day 30 mg/kg/day, 14 days
Experimental: Through a subcutaneous injection to BALB/c mice to form Matrigel plugs, an evaluation was made of whether a test substance was capable of inhibiting angiogenesis induced by vascular endothelial growth factor or Hep-3B conditional medium (CM).
Matrigel is extracted from the Engelbreth-Holm-Swarm (EHS) mouse sarcoma and contains rich extracellular matrix proteins and contains various factors need by vascular growth. In a condition of room temperature and 37° C., Matrigel is capable of polymerize as a solid gel from, and can provide a better growth environment for vascular endothelial cells.
Matrigel and vascular endothelial growth factors (FGFb+VEGF) or Hep-3B conditional medium (CM) were mixed, and then a test substance was added thereto and mixed. […]
(c) Hemoglobin content in Matrigel was quantified by a QuantiChrom™ Hemoglobin Assay Kit (DIHB-250) to evaluate the amount of neo-blood vessels in Matrigel.
After subcutaneous injection to BALB/c mice for 14 days, the Matrigel plugs in the subcutaneous tissue of the mouse was taken out and equal amount of dispase was added therein to form a mixture and reacted at 37° C. for 16 hours to dissolve intercellular substance gel. […] After the supernatant was reacted with the reagent for 5 minutes, the optical density (O.D.) at 400 nm therefrom was determined. […]

[4] = tested on: growth factor (FGFb+VEGF)-induced angiogenesis; experiment: Matrigel plugs assay, in vivo growth factor-induced angiogenesis; design: species or system BALB/c mice; settings: orally administered every day 30 mg/kg/day, 14 days
PBMCs = experiment: Toxicity test for normal cells, PBMCs (Alamarblue cell viability assay); type: cell-based; settings: PBMC, 72 hours incubation, read-out: IC50 of a test drug for PBMCs
Experimental: In order to investigate whether the inhibiting effects mentioned above of the crude extract (CBT-143-S) and the fractional extract (CBT-143-S-F6F7) are due to the toxicity thereof or not, cell viability assay for normal cells, PBMCs, and growth inhibition assays for HUVECs were performed to the crude extract (CBT-143-S) and the fractional extract (CBT-143-S-F6F7), and a commercial clinical drug, sorafenib, were used for comparison as a reference.
Alamarblue is a plant dye that is usually blue. The dye decomposes during cell proliferation and reduces from blue to pink, and a rise in O.D. at 570 nm can be determined. Conversely, the more dead cells there are, the lower the O.D. value is determined to be.
PBMC cells (1×10^5 cells/well) were inoculated in a 96-well plate, and the crude extract (CBT-143-S) and the fractional extract (CBT-143-S-F6F7) samples, etc. with different concentrations (300, 100, 30, 10, 3 and 1 μg/mL) were added to the plate. After incubating for 72 hours, Alamarblue was added to the plate and incubated at 37° C. for 24 hours, and then the O.D. at 570 nm/600 nm thereof was determined by an ELISA reader. After that, the obtained O.D. values were substituted into the formal calculation as follows: […]

Compound | neovascular response in implanted cornea [1] | IC50 [2] | CNV lesions areas compared to DMSO-treated vehicles (laser-induced CNV; intravitreal, day 7 and day 14) | fluorescent dye uptake and extent of CNV (laser-induced CNV) | hemoglobin concentration of the Matrigel plug [3] | hemoglobin concentration of the Matrigel plug [4] | IC50 (PBMCs)
COc1cc(C[C@H]2C(=O)OC[C@@H]2Cc2ccc3c(c2)OCO3)cc(OC)c1OC [JC-5, yatein] | inhibited | 0.335 µM | significantly decreased | less | – | – | –
CNC(=O)c1cc(Oc2ccc(NC(=O)Nc3ccc(Cl)c(C(F)(F)F)c3)cc2)ccn1 [Sorafenib, sorafenib] | – | – | – | – | 25.05 ± 17.59 mg/dL | 27.09 ± 5.88 mg/dL | 10.8 ± 0.95 µM
